One experiment addresses KRas G12C (Homo sapiens, UniProt P01116, C118S/C51S/C80L/G12C). Nature of the experiment: KRas G12C Modification Assay (LCMS detection of covalent adduct). Format: binding. Particulars: normalized percent of control; tested at 5 μM concentration for 3 hours. In a few lines: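 Cys-light KRas G12C mutant protein incubated with compound in K-Ras assay buffer, reactions quenched at set time points with 25 mM acetic acid and analysed by intact-protein LC/MS on a C-3 column. Deconvoluted mass heights expressed as percent of control (POC) relative to compound-free protein.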

Experiment [1] concerns NCI-H358 cells (express KRas G12C), Phospho-ERK. Put plainly: Cellular inhibition of KRas G12C: Phospho-ERK in NCI-H358 cells. Format: cell-based. To be noted: pERK(Thr202/Tyr204) normalized with GAPDH, NCI-H358 cells, 3 hours, read-out: IC50. In a few lines:
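IC50 derived by 4-parameter fit of GAPDH-normalized pERK(Thr202/Tyr204) signal, as percent of DMSO control. Signal came from in-cell immunodetection with infrared secondaries after 3 h compound exposure of KRas G12C NCI-H358 cells at 0.5% DMSO.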

Molecules are shown by their SMILES. Like-named read-outs stand apart in the source and are kept apart here.

As a reminder, the IC50 is the concentration that inhibits the measured activity by half.

Turning to `C=CC(=O)N1CCN(c2nc(OC[C@@H]3CCCN3C)nc3c2CCN(c2cccc(C)c2C(F)(F)F)C3)C[C@@H]1CC#N` [Example 364, 2-[(2S)-4-[2-[[(2S)-1-methylpyrrolidin-2-yl]methoxy]-7-[3-methyl-2-(trifluoromethyl)phenyl]-6,8-dihydro-5H-pyrido[3,4-d]pyrimidin-4-yl]-1-prop-2-enoyl-piperazin-2-yl]acetonitrile], the POC result on KRas G12C is reported as “C (“C”>50% POC)”. In addition, the IC50 in experiment [1] (Homo sapiens, NCI-H358, 3 h) fell in the range of 0.1 to 1000 nM.

On to `C=CC(=O)N1CCN(c2nc(OCCCN3C[C@@H]4C[C@H]3CO4)nc3c2CCN(c2cccc4cccc(Cl)c24)C3)C[C@@H]1CC#N` [Example 365, 2-[(2S)-4-[7-(8-chloro-1-naphthyl)-2-[3-[(1S,4S)-2-oxa-5-azabicyclo[2.2.1]heptan-5-yl]propoxy]-6,8-dihydro-5H-pyrido[3,4-d]pyrimidin-4-yl]-1-prop-2-enoyl-piperazin-2-yl]acetonitrile], for which the POC result at KRas G12C is given as “C (“C”>50% POC)”. In experiment [1] (Homo sapiens, NCI-H358, 3 h), the IC50 was 0.1 to 1000 nM.

In the case of `C=CC(=O)N1CCN(c2nc(OC[C@@H]3CC(F)(F)CN3C)nc3c2CCN(c2cccc4cccc(Cl)c24)C3)C[C@@H]1CC#N` [Example 366, 2-[(2S)-4-[7-(8-chloro-1-naphthyl)-2-[[(2S)-4,4-difluoro-1-methyl-pyrrolidin-2-yl]methoxy]-6,8-dihydro-5H-pyrido[3,4-d]pyrimidin-4-yl]-1-prop-2-enoyl-piperazin-2-yl]acetonitrile], on KRas G12C, the POC entry is recorded as “C (“C”>50% POC)”. Besides, the IC50 in experiment [1] (Homo sapiens, NCI-H358, 3 h) lay within 0.1 to 1000 nM.

With `CN1CCC[C@H]1COc1nc2c(c(N3CCN(C(=O)/C=C/CN4CCOCC4)[C@@H](CC#N)C3)n1)CCN(c1cccc3cccc(Cl)c13)C2` [Example 367, 2-[(2S)-4-[7-(8-chloro-1-naphthyl)-2-[[(2S)-1-methylpyrrolidin-2-yl]methoxy]-6,8-dihydro-5H-pyrido[3,4-d]pyrimidin-4-yl]-1-[(E)-4-morpholinobut-2-enoyl]piperazin-2-yl]acetonitrile], on KRas G12C, the POC entry is on record as “C (“C”>50% POC)”. Further, the IC50 in experiment [1] (Homo sapiens, NCI-H358, 3 h) was in the range of 0.1 to 1000 nM.

`C=CC(=O)N1C[C@H](C)N(c2nc(OC[C@@H]3CCCN3C)nc3c2CCN(c2cccc4ccccc24)C3)C[C@@H]1CC#N` [Example 368, 2-((2S,5S)-1-acryloyl-5-methyl-4-(2-(((S)-1-methylpyrrolidin-2-yl)methoxy)-7-(naphthalen-1-yl)-5,6,7,8-tetrahydropyrido[3,4-d]pyrimidin-4-yl)piperazin-2-yl)acetonitrile]: the POC entry on KRas G12C is “C (“C”>50% POC)”. In addition, the IC50 in experiment [1] (Homo sapiens, NCI-H358, 3 h) was above 1000 nM.

With `C=CC(=O)N1CCN(c2nc(OCCCN3C[C@@H]4C[C@H]3CO4)nc3c2CCN(c2cccc4cccc(C)c24)C3)C[C@@H]1CC#N` [Example 369, 2-((S)-4-(2-(3-((1 S,4S)-2-oxa-5-azabicyclo[2.2.1]heptan-5-yl)propoxy)-7-(8-methylnaphthalen-1-yl)-5,6,7,8-tetrahydropyrido[3,4-d]pyrimidin-4-yl)-1-acryloylpiperazin-2-yl)acetonitrile], the POC entry at KRas G12C was “C (“C”>50% POC)”. For the same compound, the IC50 in experiment [1] (Homo sapiens, NCI-H358, 3 h) lay in the range of 0.1 to 1000 nM.

For the compound `C=CC(=O)N1CCN(c2nc(OCCCN3CCOCC3)nc3c2CCN(c2cccc4cccc(C)c24)C3)C[C@@H]1CC#N` [Example 370, (S)-2-(1-acryloyl-4-(7-(8-methylnaphthalen-1-yl)-2-(3-morpholinopropoxy)-5,6,7,8-tetrahydropyrido[3,4-d]pyrimidin-4-yl)piperazin-2-yl)acetonitrile], the POC entry on KRas G12C is listed as “C (“C”>50% POC)”. Besides, in experiment [1] (Homo sapiens, NCI-H358, 3 h), the half-maximal inhibitory concentration (IC50) fell in the range of 0.1 to 1000 nM.

As to `C=CC(=O)N1CCN(c2nc(OCCC(=O)N(C)C)nc3c2CCN(c2cccc4cccc(C)c24)C3)C[C@@H]1CC#N` [Example 371, (S)-3-((4-(4-acryloyl-3-(cyanomethyl)piperazin-1-yl)-7-(8-methylnaphthalen-1-yl)-5,6,7,8-tetrahydropyrido[3,4-d]pyrimidin-2-yl)oxy)-N,N-dimethylpropanamide], the POC entry on KRas G12C was “C (“C”>50% POC)”. The IC50 in experiment [1] (Homo sapiens, NCI-H358, 3 h) fell in the range of 0.1 to 1000 nM.

For `C/C=C/C(=O)N1CCN(c2nc(OC[C@@H]3CCCN3C)nc3c2CCN(c2cccc4cccc(C)c24)C3)C[C@@H]1CC#N` [Example 372, 2-((S)-1-((E)-but-2-enoyl)-4-(7-(8-methylnaphthalen-1-yl)-2-(((S)-1-methylpyrrolidin-2-yl)methoxy)-5,6,7,8-tetrahydropyrido[3,4-d]pyrimidin-4-yl)piperazin-2-yl)acetonitrile], the POC result on KRas G12C is given as “C (“C”>50% POC)”. Further, the IC50 in experiment [1] (Homo sapiens, NCI-H358, 3 h) lay in the range of 0.1 to 1000 nM.

As to `C=CC(=O)N1CCN(c2nc(OC[C@@H]3CCCN3C)nc3c2CCN(c2ncccc2C(F)(F)F)C3)CC1CC#N` (stereo partly drawn) [Example 373, 2-(1-acryloyl-4-(2-(((S)-1-methylpyrrolidin-2-yl)methoxy)-7-(3-(trifluoromethyl)pyridin-2-yl)-5,6,7,8-tetrahydropyrido[3,4-d]pyrimidin-4-yl)piperazin-2-yl)acetonitrile], the POC result at KRas G12C was “C (“C”>50% POC)”. In addition, in experiment [1] (Homo sapiens, NCI-H358, 3 h), the IC50 is above 1000 nM.

Take `C=CC(=O)N1CCN(c2nc(OC[C@@H]3CCCN3C)nc3c2CCN(c2ccccc2CC(F)(F)F)C3)CC1CC#N` (stereo partly drawn) [Example 374, 2-(1-acryloyl-4-(2-(((S)-1-methylpyrrolidin-2-yl)methoxy)-7-(2-(2,2,2-trifluoroethyl)phenyl)-5,6,7,8-tetrahydropyrido[3,4-d]pyrimidin-4-yl)piperazin-2-yl)acetonitrile]: at KRas G12C, the POC entry was “C (“C”>50% POC)”. The IC50 in experiment [1] was above 1000 nM.

In the case of `CC#CC(=O)N1CCN(c2nc(OC[C@@H]3CCCN3C)nc3c2CCN(c2cccc4ccccc24)C3)CC1CC#N` (stereo partly drawn) [Example 376, 2-(1-(but-2-ynoyl)-4-(2-(((S)-1-methylpyrrolidin-2-yl)methoxy)-7-(naphthalen-1-yl)-5,6,7,8-tetrahydropyrido[3,4-d]pyrimidin-4-yl)piperazin-2-yl)acetonitrile 2,2,2-trifluoroacetate], the POC result on KRas G12C is on record as “C (“C”>50% POC)”. Moreover, in experiment [1] (Homo sapiens, NCI-H358, 3 h), the IC50 was in the range of 0.1 to 1000 nM.

Turning to `C=CC(=O)N1CCN(c2nc(OC[C@@H]3CCCCN3C)nc3c2CCN(c2cccc4ccccc24)C3)C[C@@H]1CC#N` [Example 377, 2-((S)-1-acryloyl-4-(2-(((S)-1-methylpiperidin-2-yl)methoxy)-7-(naphthalen-1-yl)-5,6,7,8-tetrahydropyrido[3,4-d]pyrimidin-4-yl)piperazin-2-yl)acetonitrile], the POC entry on KRas G12C is given as “C (“C”>50% POC)”. The IC50 in experiment [1] (Homo sapiens, NCI-H358, 3 h) was in the range of 0.1 to 1000 nM.

`C=CC(=O)N1C[C@@H](C)N(c2nc(OC[C@@H]3CCCN3C)nc3c2CCN(c2cccc4ccccc24)C3)C[C@@H]1CC#N` [Example 378, 2-((2S,5R)-1-acryloyl-5-methyl-4-(2-(((S)-1-methylpyrrolidin-2-yl)methoxy)-7-(naphthalen-1-yl)-5,6,7,8-tetrahydropyrido[3,4-d]pyrimidin-4-yl)piperazin-2-yl)acetonitrile]: the POC entry at KRas G12C was “C (“C”>50% POC)”. Further, the IC50 in experiment [1] (Homo sapiens, NCI-H358, 3 h) lay in the range of 0.1 to 1000 nM.

Take `C=CC(=O)N1CCN(c2nc(OC[C@@H]3CCCN3C)nc3c2CCN(c2ccccc2C(F)(F)F)C3)C[C@@H]1CC#N` [Example 379, 2-((S)-1-acryloyl-4-(2-(((S)-1-methylpyrrolidin-2-yl)methoxy)-7-(2-(trifluoromethyl)phenyl)-5,6,7,8-tetrahydropyrido[3,4-d]pyrimidin-4-yl)piperazin-2-yl)acetonitrile]: at KRas G12C, the POC result is reported as “C (“C”>50% POC)”. Also, in experiment [1], the IC50 lay within 0.1 to 1000 nM.

In the case of `C=CC(=O)N1CCN(c2nc(OC[C@@H]3CCCN3CCOC)nc3c2CCN(c2cccc4ccccc24)C3)CC1CC#N` (stereo partly drawn) [Example 380, 2-(1-acryloyl-4-(2-(((S)-1-(2-methoxyethyl)pyrrolidin-2-yl)methoxy)-7-(naphthalen-1-yl)-5,6,7,8-tetrahydropyrido[3,4-d]pyrimidin-4-yl)piperazin-2-yl)acetonitrile], on KRas G12C, the POC entry is “C (“C”>50% POC)”. Besides, the IC50 in experiment [1] lay within 0.1 to 1000 nM.

`C=CC(=O)N1CCN(c2nc(OC[C@@H]3C[C@@H](OC)CN3C)nc3c2CCN(c2cccc4ccccc24)C3)CC1CC#N` (stereo partly drawn) [Example 381, 2-(1-acryloyl-4-(2-(((2S,4R)-4-methoxy-1-methylpyrrolidin-2-yl)methoxy)-7-(naphthalen-1-yl)-5,6,7,8-tetrahydropyrido[3,4-d]pyrimidin-4-yl)piperazin-2-yl)acetonitrile]: the POC entry at KRas G12C is “C (“C”>50% POC)”. Also, in experiment [1], the IC50 lay in the range of 0.1 to 1000 nM.

On to `C=CC(=O)N1CCN(c2nc(OC[C@@H]3CCCN3C)nc3c2CCN(c2cncc(F)c2C(F)(F)F)C3)C[C@@H]1CC#N` [Example 383, 2-((S)-1-acryloyl-4-(7-(5-fluoro-4-(trifluoromethyl)pyridin-3-yl)-2-(((S)-1-methylpyrrolidin-2-yl)methoxy)-5,6,7,8-tetrahydropyrido[3,4-d]pyrimidin-4-yl)piperazin-2-yl)acetonitrile], for which the POC result on KRas G12C was “C (“C”>50% POC)”. In addition, the half-maximal inhibitory concentration (IC50) in experiment [1] (Homo sapiens, NCI-H358, 3 h) is 0.1 to 1000 nM.

On to `C=CC(=O)N1CCN(c2nc(OC[C@@H]3C[C@@H](F)CN3C)nc3c2CCN(c2cncc(F)c2C(F)(F)F)C3)C[C@@H]1CC#N` [Example 384, 2-((S)-1-acryloyl-4-(2-(((2S,4R)-4-fluoro-1-methylpyrrolidin-2-yl)methoxy)-7-(5-fluoro-4-(trifluoromethyl)pyridin-3-yl)-5,6,7,8-tetrahydropyrido[3,4-d]pyrimidin-4-yl)piperazin-2-yl)acetonitrile], for which, at KRas G12C, the POC entry was “C (“C”>50% POC)”. For the same compound, in experiment [1] (Homo sapiens), the IC50 is 0.1 to 1000 nM.

For the origin of these results see patent US10125134B2 (Mirati Therapeutics, Inc., priority 2016, dated 2018).
